# Patent publication US8883504B2, “Cell differentiation suppressing agent, method of culturing cells using the same, culture solution, and cultured cell line” (Asahi Kasei Kabushiki Kaisha, priority 2003, dated 2014)
# How the values were obtained:
# Nanog gene = Nanog gene expression level by real time PCR (ES cell differentiation inhibition assay 3); assay type: cell-based, mouse; conditions: D3ES cells, 4 μg/mL, 1 day, GAPDH internal standard, FIG. 7
# Procedure: For the D3ES cells prepared by the method described in (3) preparation of a mouse ES cell of Example 1, 7.85×10^5 cells were seeded in a 10 cm-diameter cell culture dish coated previously with a 0.1% aqueous gelatin solution to make 10 mL of the ES cell assay medium. The differentiation inhibiting agent B of the present invention in the final concentration of 4 μg/mL or ESGRO in the final concentration of 1×10^3 unit/mL was added to each dish, and culturing was carried out at 37° C. in 5% CO2 incubator for 1 day.
# The total RNA was extracted from the ES cell cultured by the method shown in (3) ES cell differentiation inhibition assay 3 as described above by using ISOGEN (K.K. Nippon Gene Corp. Japan made) by the attached method. In this method, the cell was collected in a 15 mL sterilized tube, centrifuged at 1,000 rpm for about 5 minutes by using the table centrifuge (TOMY SEIKO made) to make pellets. The supernatant was removed, the pellets were washed twice with 10 mL of PBS, and then, transferred to a 1.5 mL Eppendorf tube. The pellets were dissolved in 1 ml ISOGENE and left stand at room temperature for 5 minutes and, then, added with 0.2 mL of chloroform (Wako Pure Chemicals), shaken for 15 seconds, and left stand at room temperature for 2 or 3 minutes. Centrifugation was carried out at 4° C. at 10,000 rpm for 15 minutes by using the micro centrifuge (TOMY SEIKO made), 400 μL of the supernatant was transferred to a fresh 1.5 mL Eppendorf tube. 500 μL of isopropanol (Wako Pure Chemicals) was added and the mixture was left stand at room temperature for 10 minutes and, then, was centrifuged at 4° C. at 10,000 rpm for 10 minutes by using the micro centrifuge. The supernatant was removed and, then, 1 mL of a 70% ethanol aqueous solution was added. The mixture was shaken and then was centrifuged at 4° C. at 10,000 rpm for about 5 minutes by using the micro centrifuge. The supernatant was removed and the precipitation was dried and, then, dissolved in 30 μL of distilled water to obtain the total RNA solution.
# The cDNA was synthesized by using 2 μg of the total RNA obtained by such the way as the template, using DeoxyribonucleaseI (Amplification Grade) (Invitrogen Corp. made) and SuperScript III First-Strand Synthesis System for RT-PCR (Invitrogen Corp. made, 18080-051) by the attached protocol. In this step, 1 μL of 10× DNaseI Reaction Buffer, 1 μL of 10× DNaseI (all these were of Invitrogen Corp. made) were added to 2 μg of the total RNA to give the total volume of 10 μL by adding distilled water to prepare the reaction solution, and then incubation was carried out at room temperature for 10 minutes. 1 μL of 25 mM EDTA solution was added, and the mixture was heated at 65° C. for 10 minutes and then, cooled to room temperature. 8 μL of the reaction solution was taken out, and 1 μL of […] Oligo(dT) 20 primer and 1 μL of 10 mM dNTP Mix were added, and incubation was carried out at 65° C. for 5 minutes. The reaction solution was placed on ice for 1 minute, and then 2 μL of 10× RT Buffer, 4 μL of 25 mM MgCl2, 2 μL of 0.1 M DTT, 1 μL of RNaseOUT (Invitrogen Corp. made) and 1 μL of SuperScript III RT were added for incubation at 50° C. for 50 minutes. Subsequently, incubation was carried out at 85° C. for 5 minutes, and then the mixture was left stand on ice for 1 min. […] The expression level of the Nanog gene and the glyceraldehyde-3-phosphate dehydrogenase (GAPDH) gene as the internal standard were measured. […]
# SSEA-1 antigen = test: Evaluation of the expression level of SSEA-1 antigen 1 (flow cytometry); assay type: cell-based, mouse; conditions: D3ES cells, 7 days, FIG. 8
# Procedure: For the D3ES cells prepared by the method described in (3) preparation of a mouse ES cell of Example 1, 8×10^4 cells were seeded in a 10 cm-diameter cell culture dish coated previously with a 0.1% aqueous gelatin solution to make 10 mL of the ES cell assay medium. 1 mL of the differentiation inhibiting agent A to F, which were dissolved in dimethylsulfoxide (DMSO) or culture medium or their mixture to make 40 μg/mL per each dish, or ESGRO, which was adjusted to make 10^4 unit/mL, was added, and culturing was carried out at 37° C. in 5% […] incubator for 7 days. To the culture medium was added DMSO to make the final concentration 0.1% or lower.
# The cells cultured in (1) ES cell differentiation inhibition assay 2 as described above were washed twice with PBS, and were removed from the dish with a cell scraper. 300 μL of Hanks balanced salt solution (HBSS, Invitrogen Corp. made) containing 2% FBS was added to give 6×10^5 cells. 30 μL of MX-SSEA-1 antibody (Kyowa Medex Corp. made) diluted 50 folds with HBSS was added, and left stand for 40 minutes on ice. […] The sample used for flow cytometry was measured after passed through a nylon mesh with a 100 μm pore size to eliminate a coagulated mass. […]
Compound,"expression level of Nanog gene in comparison with medium without agent and medium containing 1,000 units/mL of ESGRO (Nanog gene)",average fluorescence intensity per 1 cell (SSEA-1 antigen expression intensity per 1 cell) in comparison with medium without agent (SSEA-1 antigen)
"CC(=O)c1ccc(/N=N/C(C(N)=O)=C2/NC(C)(C)Cc3ccccc32)cc1 [compound B, 2-(4-acetyl-phenylazo)-2-(3,3-dimethyl-3,4-dihydro-2H-isoquinoline-1-ylidene)-acetamide]",increased significantly,–
"CC1(C)Cc2ccccc2C(=C(N=Nc2cccc(Cl)c2)C(N)=O)N1 [C, 2-(3-chloro-phenylazo)-2-(3,3-dimethyl-3,4-dihydro-2H-isoquinoline-1-ylidene)-acetamide]",increased similarly to the differentiation inhibiting agents B,significantly high
"CC1(C)Cc2ccccc2C(=C(N=Nc2cccc([N+](=O)[O-])c2)C(N)=O)N1 [E, 2-(3,3-dimethyl-3,4-dihydro-2H-isoquinoline-1-ylidene)-2-(3-nitro-phenylazo)-acetamide]",increased similarly to the differentiation inhibiting agents B,significantly high
"COc1ccc(N=NC(C(N)=O)=C2NC(C)(C)Cc3ccccc32)cc1 [F, 2-(3,3-dimethyl-3,4-dihydro-2H-isoquinoline-1-ylidene)-2-(4-methoxy-phenylazo)-acetamide]",increased similarly to the differentiation inhibiting agents B,–
